{"source": "patent US8906909B2", "about": "(Curis, Inc., priority 2009, dated 2014)", "data": [{"test_system": "HDACs (HeLa cell nuclear extracts)", "assay": "HDAC enzymatic activity, Biomol Color de Lys system", "assay_type": "biochemical", "method": "(e) An In Vitro Assay which Determines the Ability of a Test Compound to Inhibit HDAC Enzymatic Activity.\nHDAC inhibitory activity was assessed using the Biomol Color de Lys system (AK-500, Biomol, Plymouth Meeting, Pa.). Briefly, HeLa cell nuclear extracts were used as a source of HDACs. Different concentrations of test compounds were serially diluted in dimethylsulphoxide (DMSO) and added to HeLa cell nuclear extracts in the presence of a colorimetric artificial substrate. Final assay condition contained 50 mM Tris/Cl, pH 8.0, 137 mM NaCl, 2.7 mM KCl and 1 mM MgCl2. Reactions were carried in room temperature (25° C.) for 1 hour before addition of developer for termination. Relative enzyme activity was measured in the WALLAC Victor II 1420 microplate reader as floorescence intensity (excitation: 350-380 nm; emission: 440-460 nm). Data were analyzed using GraphPad Prism (v4.0a) with a sigmoidal dose response curve fitting for IC50 calculation.", "units": {"IC50": "nM"}, "values": [{"smiles": "CN(Cc1cc2nc(-c3ccc4[nH]ccc4c3)nc(N3CCOCC3)c2s1)c1ncc(C(=O)NO)cn1", "note": "[Compound 192]", "IC50": "< 100"}, {"smiles": "CN(Cc1cc2nc(-c3ccc4c(c3)CCN4)nc(N3CCOCC3)c2s1)c1ncc(C(=O)NO)cn1", "note": "[Compound 193]", "IC50": "< 100"}, {"smiles": "O=C(NO)c1ccc(CNCc2cc3nc(-c4cccc5[nH]ncc45)nc(N4CCOCC4)c3s2)cc1", "note": "[Compound 203]", "IC50": "100 to 1000"}, {"smiles": "O=C(/C=C/c1ccc(CNCc2cc3nc(-c4cccc5[nH]ncc45)nc(N4CCOCC4)c3s2)cc1)NO", "note": "[Compound 204]", "IC50": "100 to 1000"}, {"smiles": "CN(Cc1cc2nc(-c3ccc(N)cc3)nc(N3CCOCC3)c2s1)c1ccc(C(=O)NO)cc1", "note": "[Compound 206]", "IC50": "< 100"}, {"smiles": "Nc1ccc(-c2nc(N3CCOCC3)c3sc(CN4CCN(c5ncc(C(=O)NO)cn5)CC4)cc3n2)cc1", "note": "[Compound 207]", "IC50": "< 100"}, {"smiles": "Nc1ccc(-c2nc(N3CCOCC3)c3sc(CNCc4ccc(C(=O)NO)cc4)cc3n2)cc1", "note": "[Compound 209]", "IC50": "< 100"}, {"smiles": "Nc1ccc(-c2nc(N3CCOCC3)c3sc(CNCc4ccc(/C=C/C(=O)NO)cc4)cc3n2)cc1", "note": "[Compound 210]", "IC50": "100 to 1000"}, {"smiles": "CC(c1cc2nc(-c3ccc(N)cc3)nc(N3CCOCC3)c2s1)N(C)c1ncc(C(=O)NO)cn1", "note": "(stereo not drawn) [Compound 214]", "IC50": "< 100"}, {"smiles": "CCN(Cc1cc2nc(-c3ccc(N)cc3)nc(N3CCOCC3)c2s1)c1ncc(C(=O)NO)cn1", "note": "[Compound 215]", "IC50": "< 100"}, {"smiles": "O=C(/C=C/c1cccc(S(=O)(=O)Nc2cc3nc(-c4cccc5[nH]ncc45)nc(N4CCOCC4)c3s2)c1)NO", "note": "[Compound 216]", "IC50": "< 100"}, {"smiles": "COc1ncc(-c2nc(N3CCOCC3)c3sc(NS(=O)(=O)c4ccc(/C=C/C(=O)NO)cc4)cc3n2)cn1", "note": "[Compound 219]", "IC50": "< 100"}, {"smiles": "COc1ncc(-c2nc(N3CCOCC3)c3sc(NS(=O)(=O)c4cccc(/C=C/C(=O)NO)c4)cc3n2)cn1", "note": "[Compound 220]", "IC50": "< 100"}, {"smiles": "CNc1ccc(-c2nc(N3CCOCC3)c3sc(NS(=O)(=O)c4ccc(/C=C/C(=O)NO)cc4)cc3n2)cn1", "note": "[Compound 223]", "IC50": "< 100"}, {"smiles": "CNc1ccc(-c2nc(N3CCOCC3)c3sc(NS(=O)(=O)c4cccc(/C=C/C(=O)NO)c4)cc3n2)cn1", "note": "[Compound 224]", "IC50": "< 100"}, {"smiles": "COc1ccc(-c2nc(N3CCOCC3)c3sc(NCCCCC(=O)NO)cc3n2)cn1", "note": "[Compound 230]", "IC50": "< 100"}, {"smiles": "O=C(CCCCNc1cc2nc(-c3cc(O)ccc3F)nc(N3CCOCC3)c2s1)NO", "note": "[Compound 231]", "IC50": "< 100"}, {"smiles": "Nc1ccc(-c2nc(N3CCOCC3)c3sc(CN(CCO)c4ncc(C(=O)NO)cn4)cc3n2)cn1", "note": "[Compound 235]", "IC50": "< 100"}, {"smiles": "CNc1ccc(-c2nc(N3CCOCC3)c3sc(C(C)(C)N(C)c4ncc(C(=O)NO)cn4)cc3n2)cn1", "note": "[Compound 241]", "IC50": "< 100"}, {"smiles": "CNc1ccc(-c2nc(N3CCOCC3)c3sc(N(C)c4ncc(C(=O)NO)cn4)cc3n2)cn1", "note": "[Compound 243]", "IC50": "100 to 1000"}, {"smiles": "CNc1ccc(-c2nc(N3CCOCC3)c3sc(CN(CCO)c4ncc(C(=O)NO)cn4)cc3n2)cn1", "note": "[Compound 245]", "IC50": "< 100"}, {"smiles": "COc1ccc(-c2nc(N3CCOCC3)c3sc(C(C)N(C)c4ncc(C(=O)NO)cn4)cc3n2)cn1", "note": "(stereo not drawn) [Compound 247, N-hydroxy-2-((1-(2-(6-methoxypyridin-3-yl)-4-morpholinothieno[3,2-d]pyrimidin-6-yl)ethyl)(methyl)amino)pyrimidine-5-carboxamide]", "IC50": "< 100"}, {"smiles": "COc1ccc(-c2nc(N3CCOCC3)c3sc(C(C)(C)Nc4ncc(C(=O)NO)cn4)cc3n2)cn1", "note": "[Compound 250, N-Hydroxy-2-(2-(2-(6-methoxypyridin-3-yl)-4-morpholinothieno[3,2-d]pyrimidin-6-yl)propan-2-ylamino)pyrimidine-5-carboxamide]", "IC50": "< 100"}, {"smiles": "COc1ccc(-c2nc(N3CCOCC3)c3sc(Nc4ncc(C(=O)NO)cn4)cc3n2)cn1", "note": "[Compound 253]", "IC50": "100 to 1000"}, {"smiles": "CN(Cc1cc2nc(-c3ccc(O)nc3)nc(N3CCOCC3)c2s1)c1ncc(C(=O)NO)cn1", "note": "[Compound 254]", "IC50": "< 100"}, {"smiles": "CN(Cc1cc2nc(-c3ccc(OCc4ccccc4)nc3)nc(N3CCOCC3)c2s1)c1ncc(C(=O)NO)cn1", "note": "[Compound 260]", "IC50": "< 100"}, {"smiles": "COc1ncc(-c2nc(N3CCOCC3)c3sc(C(C)(C)N(C)c4ncc(C(=O)NO)cn4)cc3n2)cn1", "note": "[Compound 264]", "IC50": "< 100"}, {"smiles": "COc1ccc(-c2nc(N3CCOCC3)c3sc(CN(CCO)c4ncc(C(=O)NO)cn4)cc3n2)cn1", "note": "[Compound 265]", "IC50": "< 100"}, {"smiles": "CN(Cc1cc2nc(-c3cnc(OCc4ccccc4)nc3)nc(N3CCOCC3)c2s1)c1ncc(C(=O)NO)cn1", "note": "[Compound 266]", "IC50": "< 100"}, {"smiles": "CC(C)(Nc1ncc(C(=O)NO)cn1)c1cc2nc(-c3ccc(N)cc3)nc(N3CCOCC3)c2s1", "note": "[Compound 269, 2-(2-(2-(4-Aminophenyl)-4-morpholinothieno[3,2-d]pyrimidin-6-yl)propan-2-ylamino)-N-hydroxypyrimidine-5-carboxamide]", "IC50": "< 100"}, {"smiles": "CN(c1ncc(C(=O)NO)cn1)C(C)(C)c1cc2nc(-c3ccc(N)cc3)nc(N3CCOCC3)c2s1", "note": "[Compound 270]", "IC50": "< 100"}, {"smiles": "CN(c1ncc(C(=O)NO)cn1)c1cc2nc(-c3ccc(N)cc3)nc(N3CCOCC3)c2s1", "note": "[Compound 272]", "IC50": "< 100"}, {"smiles": "Nc1ccc(-c2nc(N3CCOCC3)c3sc(Nc4ncc(C(=O)NO)cn4)cc3n2)cc1", "note": "[Compound 273]", "IC50": "100 to 1000"}, {"smiles": "Nc1ccc(-c2nc(N3CCOCC3)c3sc(CN(CCO)c4ncc(C(=O)NO)cn4)cc3n2)cc1", "note": "[Compound 274]", "IC50": "< 100"}, {"smiles": "Nc1ccc(-c2nc(N3CCOCC3)c3sc(CN(CCO)c4ncc(C(=O)NO)cn4)cc3n2)cc1F", "note": "[Compound 277]", "IC50": "< 100"}, {"smiles": "CN(Cc1cc2nc(-c3ccc(N)cc3F)nc(N3CCOCC3)c2s1)c1ncc(C(=O)NO)cn1", "note": "[Compound 283, 2-{[2-(4-Amino-2-fluoro-phenyl)-4-morpholin-4-yl-thieno[3,2-d]pyrimidin-6-ylmethyl]-methyl-amino}-pyrimidine-5-carboxylic acid hydroxyamide]", "IC50": "< 100"}, {"smiles": "CC(C)C(=O)Nc1ccc(-c2nc(N3CCOCC3)c3sc(CN(C)c4ncc(C(=O)NO)cn4)cc3n2)cc1", "note": "[Compound 286]", "IC50": "< 100"}, {"smiles": "CC(C)OC(=O)Nc1ccc(-c2nc(N3CCOCC3)c3sc(CN(C)c4ncc(C(=O)NO)cn4)cc3n2)cc1", "note": "[Compound 287]", "IC50": "< 100"}, {"smiles": "CN(Cc1cc2nc(-c3cccc(NS(C)(=O)=O)c3)nc(N3CCOCC3)c2s1)c1ncc(C(=O)NO)cn1", "note": "[Compound 288]", "IC50": "< 100"}, {"smiles": "CN(Cc1cc2nc(-c3cccc(S(=O)(=O)CCO)c3)nc(N3CCOCC3)c2s1)c1ncc(C(=O)NO)cn1", "note": "[Compound 291]", "IC50": "< 100"}, {"smiles": "C/C(=N/O)c1ccc(F)c(-c2nc(N3CCOCC3)c3sc(CN(C)c4ncc(C(=O)NO)cn4)cc3n2)c1", "note": "[Compound 298]", "IC50": "< 100"}, {"smiles": "C/C(=N/O)c1cccc(-c2nc(N3CCOCC3)c3sc(CN(C)c4ncc(C(=O)NO)cn4)cc3n2)c1", "note": "[Compound 299]", "IC50": "< 100"}, {"smiles": "CC(=O)c1cccc(-c2nc(N3CCOCC3)c3sc(CN(C)c4ncc(C(=O)NO)cn4)cc3n2)c1", "note": "[Compound 300]", "IC50": "< 100"}, {"smiles": "CC(=O)c1ccc(F)c(-c2nc(N3CCOCC3)c3sc(CN(C)c4ncc(C(=O)NO)cn4)cc3n2)c1", "note": "[Compound 301]", "IC50": "< 100"}, {"smiles": "CN(Cc1cc2nc(-c3cccc(C(C)(C)O)c3)nc(N3CCOCC3)c2s1)c1ncc(C(=O)NO)cn1", "note": "[Compound 302]", "IC50": "< 100"}, {"smiles": "Nc1ccc(-c2nc(N3CCOCC3)c3sc(S(=O)(=O)NCC4CCN(c5ncc(C(=O)NO)cn5)CC4)cc3n2)cc1", "note": "[Compound 309]", "IC50": "100 to 1000"}, {"smiles": "Cc1ncc(-c2nc(N3CCOCC3)c3sc(CN(C)c4ncc(C(=O)NO)cn4)cc3n2)s1", "note": "[Compound 311]", "IC50": "< 100"}, {"smiles": "Cc1ncc(-c2nc(N3CCOCC3)c3sc(CN(CCO)c4ncc(C(=O)NO)cn4)cc3n2)s1", "note": "[Compound 312]", "IC50": "< 100"}, {"smiles": "Cn1cc(-c2nc(N3CCOCC3)c3sc(CN(CCO)c4ncc(C(=O)NO)cn4)cc3n2)cn1", "note": "[Compound 313]", "IC50": "< 100"}, {"smiles": "CN(Cc1cc2nc(-c3cccc4[nH]c(=O)[nH]c34)nc(N3CCOCC3)c2s1)c1ncc(C(=O)NO)cn1", "note": "[Compound 314]", "IC50": "< 100"}, {"smiles": "CN(Cc1cc2nc(-c3cccc4[nH]c(=S)[nH]c34)nc(N3CCOCC3)c2s1)c1ncc(C(=O)NO)cn1", "note": "[Compound 315]", "IC50": "< 100"}, {"smiles": "CN(Cc1cc2nc(-c3cccc4[nH]c(=O)sc34)nc(N3CCOCC3)c2s1)c1ncc(C(=O)NO)cn1", "note": "[Compound 317]", "IC50": "< 100"}, {"smiles": "CCCc1nc2cc(/C=C/C(=O)NO)ccc2n1CCN(C)Cc1cc2nc(-c3ccc(NC)nc3)nc(N3CCOCC3)c2s1", "note": "[Compound 322]", "IC50": "100 to 1000"}, {"smiles": "CCCc1nc2cc(/C=C/C(=O)NO)ccc2n1CCNCc1cc2nc(-c3ccc(NC)nc3)nc(N3CCOCC3)c2s1", "note": "[Compound 323]", "IC50": "100 to 1000"}, {"smiles": "CCCc1nc2cc(/C=C/C(=O)NO)ccc2n1CCN(C)Cc1cc2nc(-c3ccc(N)cc3)nc(N3CCOCC3)c2s1", "note": "[Compound 324]", "IC50": "100 to 1000"}, {"smiles": "CCCc1nc2cc(/C=C/C(=O)NO)ccc2n1CCNCc1cc2nc(-c3ccc(N)cc3)nc(N3CCOCC3)c2s1", "note": "[Compound 325]", "IC50": "100 to 1000"}, {"smiles": "Cn1c(CNCc2cc3nc(-c4ccc(N)cc4)nc(N4CCOCC4)c3s2)nc2cc(/C=C/C(=O)NO)ccc21", "note": "[Compound 326]", "IC50": "100 to 1000"}, {"smiles": "CN(Cc1cc2nc(-c3ccc(N)cc3)nc(N3CCOCC3)c2s1)Cc1nc2cc(/C=C/C(=O)NO)ccc2n1C", "note": "[Compound 327]", "IC50": "100 to 1000"}, {"smiles": "CNc1ccc(-c2nc(N3CCOCC3)c3sc(CNCc4nc5cc(/C=C/C(=O)NO)ccc5n4C)cc3n2)cn1", "note": "[Compound 328]", "IC50": "100 to 1000"}, {"smiles": "CNc1ccc(-c2nc(N3CCOCC3)c3sc(CN(C)Cc4nc5cc(/C=C/C(=O)NO)ccc5n4C)cc3n2)cn1", "note": "[Compound 329]", "IC50": "100 to 1000"}]}]}
